Test results published in patent US4228292A, “N-Substituted benzothiazolines and benzoxazolines and their use as herbicides and plant growth regulants” (Monsanto Company, priority 1978, dated 1980).

What was measured:
Type in all cases: in vivo
Wild Buckwheat [1] = assay: post-emergent herbicidal test; conditions: Q
Method: (§1) The post-emergent tests were conducted as follows:
(§2) The herbicidal active ingredients are applied in spray form to two or three-week old specimens of various plant species. The spray, a solution or wettable powder suspension containing the appropriate rate of herbicidal active ingredient to give the desired test rate and a surfactant, is applied to the plants. The treated plants are placed in a greenhouse and approximately two or four weeks later the effects are observed and recorded. The results are shown in Tables IX and X in which the post-emergent herbicidal rating code is as follows: […]

Sugar Beet [2] = assay: post-emergent herbicidal test; conditions: M
Method: as §1, §2

Wheat [3] = assay: post-emergent herbicidal test; conditions: N
Method: as §1, §2

Rice [4] = assay: post-emergent herbicidal test; conditions: O
Method: as §1, §2

Crabgrass [5] = assay: post-emergent herbicidal test; conditions: T
Method: as §1, §2

Hemp Sesbania [6] = assay: post-emergent herbicidal test; conditions: R
Method: as §1, §2

Soybean [7] = assay: post-emergent herbicidal test; conditions: L
Method: as §1, §2

Sorghum [8] = assay: post-emergent herbicidal test; conditions: P
Method: as §1, §2

Panicum Spp [9] = assay: post-emergent herbicidal test; conditions: S
Method: as §1, §2

Wild Buckwheat [10] = assay: pre-emergent herbicidal test; conditions: Q
Method: (§3) The pre-emergent test was conducted as follows:
(§4) A good grade of top soil was placed in aluminum pans and compactd to a depth of 0.95 to 1.27 cm. from the top of the pan. On the top of the soil was placed a predetermined number of seeds or vegetative propagules of various plant species. The soil required to level fill the pans after seeding or adding vegetative propagules was weighed into a pan. A known amount of the herbicidal active ingredient applied in a solvent or as a wettable powder and the soil were thoroughly mixed, and used as a cover layer for prepared pans. After treatment the pans were moved into a greenhouse bench where they were watered from below as needed to give adequate moisture for germination and growth.
(§5) A herbicidal rating code was used to signify the extent of phytotoxicity of each species. The ratings are defined as follows: […]

Sugar Beet [11] = assay: pre-emergent herbicidal test; conditions: M
Method: as §3, §4, §5

Wheat [12] = assay: pre-emergent herbicidal test; conditions: N
Method: as §3, §4, §5

Rice [13] = assay: pre-emergent herbicidal test; conditions: O
Method: as §3, §4, §5

Crabgrass [14] = assay: pre-emergent herbicidal test; conditions: T
Method: as §3, §4, §5

Hemp Sesbania [15] = assay: pre-emergent herbicidal test; conditions: R
Method: as §3, §4, §5

Soybean [16] = assay: pre-emergent herbicidal test; conditions: L
Method: as §3, §4, §5

Sorghum [17] = assay: pre-emergent herbicidal test; conditions: P
Method: as §3, §4, §5

Panicum Spp [18] = assay: pre-emergent herbicidal test; conditions: S
Method: as §3, §4, §5
Also: ranges in brackets are in %.

COC(=N)Cn1c(=O)sc2ccccc21 [Compound 24]
post-emergent herbicidal rating (Wild Buckwheat [1]; 0.056 kg/h, 2 WAT): 1 (25-49)
post-emergent herbicidal rating (Wild Buckwheat [1]; 0.28 kg/h, 4 WAT): 1 (25-49)
post-emergent herbicidal rating (Wild Buckwheat [1]; 1.12 kg/h, 4 WAT): 4 (100)
post-emergent herbicidal rating (Wild Buckwheat [1]; 5.6 kg/h, 4 WAT): 4 (100)
post-emergent herbicidal rating (Sugar Beet [2]; 0.056 kg/h, 2 WAT): 1 (25-49)
post-emergent herbicidal rating (Sugar Beet [2]; 0.28 kg/h, 4 WAT): 1 (25-49)
post-emergent herbicidal rating (Sugar Beet [2]; 1.12 kg/h, 4 WAT): 2 (50-74)
post-emergent herbicidal rating (Sugar Beet [2]; 5.6 kg/h, 4 WAT): 3 (75-99)
post-emergent herbicidal rating (Wheat [3]; 0.056 kg/h, 2 WAT): 0 (0-24)
post-emergent herbicidal rating (Wheat [3]; 0.28 kg/h, 4 WAT): 0 (0-24)
post-emergent herbicidal rating (Wheat [3]; 1.12 kg/h, 4 WAT): 0 (0-24)
post-emergent herbicidal rating (Wheat [3]; 5.6 kg/h, 4 WAT): 1 (25-49)
post-emergent herbicidal rating (Rice [4]; 0.056 kg/h, 2 WAT): 0 (0-24)
post-emergent herbicidal rating (Rice [4]; 0.28 kg/h, 4 WAT): 0 (0-24)
post-emergent herbicidal rating (Rice [4]; 1.12 kg/h, 4 WAT): 1 (25-49)
post-emergent herbicidal rating (Rice [4]; 5.6 kg/h, 4 WAT): 0 (0-24)
post-emergent herbicidal rating (Crabgrass [5]; 0.056 kg/h, 2 WAT): 0 (0-24)
post-emergent herbicidal rating (Crabgrass [5]; 0.28 kg/h, 4 WAT): 0 (0-24)
post-emergent herbicidal rating (Crabgrass [5]; 1.12 kg/h, 4 WAT): 0 (0-24)
post-emergent herbicidal rating (Crabgrass [5]; 5.6 kg/h, 4 WAT): 0 (0-24)
post-emergent herbicidal rating (Hemp Sesbania [6]; 0.056 kg/h, 2 WAT): 0 (0-24)
post-emergent herbicidal rating (Hemp Sesbania [6]; 0.28 kg/h, 4 WAT): 1 (25-49)
post-emergent herbicidal rating (Hemp Sesbania [6]; 1.12 kg/h, 4 WAT): 2 (50-74)
post-emergent herbicidal rating (Hemp Sesbania [6]; 5.6 kg/h, 4 WAT): 4 (100)
post-emergent herbicidal rating (Soybean [7]; 0.056 kg/h, 2 WAT): 1 (25-49)
post-emergent herbicidal rating (Soybean [7]; 0.28 kg/h, 4 WAT): 1 (25-49)
post-emergent herbicidal rating (Soybean [7]; 1.12 kg/h, 4 WAT): 2 (50-74)
post-emergent herbicidal rating (Soybean [7]; 5.6 kg/h, 4 WAT): 2 (50-74)
post-emergent herbicidal rating (Sorghum [8]; 0.056 kg/h, 2 WAT): 0 (0-24)
post-emergent herbicidal rating (Sorghum [8]; 0.28 kg/h, 4 WAT): 0 (0-24)
post-emergent herbicidal rating (Sorghum [8]; 1.12 kg/h, 4 WAT): 1 (25-49)
post-emergent herbicidal rating (Sorghum [8]; 5.6 kg/h, 4 WAT): 1 (25-49)
post-emergent herbicidal rating (Panicum Spp [9]; 0.056 kg/h, 2 WAT): 0 (0-24)
post-emergent herbicidal rating (Panicum Spp [9]; 0.28 kg/h, 4 WAT): 0 (0-24)
post-emergent herbicidal rating (Panicum Spp [9]; 1.12 kg/h, 4 WAT): 0 (0-24)
post-emergent herbicidal rating (Panicum Spp [9]; 5.6 kg/h, 4 WAT): 0 (0-24)
pre-emergent herbicidal rating (Wild Buckwheat [10]; 1.12 kg/h, 4 WAT): 1 (25-49)
pre-emergent herbicidal rating (Wild Buckwheat [10]; 5.6 kg/h, 4 WAT): 3 (75-100)
pre-emergent herbicidal rating (Sugar Beet [11]; 1.12 kg/h, 4 WAT): 1 (25-49)
pre-emergent herbicidal rating (Sugar Beet [11]; 5.6 kg/h, 4 WAT): 3 (75-100)
pre-emergent herbicidal rating (Wheat [12]; 1.12 kg/h, 4 WAT): 1 (25-49)
pre-emergent herbicidal rating (Wheat [12]; 5.6 kg/h, 4 WAT): 1 (25-49)
pre-emergent herbicidal rating (Rice [13]; 1.12 kg/h, 4 WAT): 0 (0-24)
pre-emergent herbicidal rating (Rice [13]; 5.6 kg/h, 4 WAT): 1 (25-49)
pre-emergent herbicidal rating (Crabgrass [14]; 1.12 kg/h, 4 WAT): 0 (0-24)
pre-emergent herbicidal rating (Crabgrass [14]; 5.6 kg/h, 4 WAT): 1 (25-49)
pre-emergent herbicidal rating (Hemp Sesbania [15]; 1.12 kg/h, 4 WAT): 1 (25-49)
pre-emergent herbicidal rating (Hemp Sesbania [15]; 5.6 kg/h, 4 WAT): 3 (75-100)
pre-emergent herbicidal rating (Soybean [16]; 1.12 kg/h, 4 WAT): 2 (50-74)
pre-emergent herbicidal rating (Soybean [16]; 5.6 kg/h, 4 WAT): 3 (75-100)
pre-emergent herbicidal rating (Sorghum [17]; 1.12 kg/h, 4 WAT): 0 (0-24)
pre-emergent herbicidal rating (Sorghum [17]; 5.6 kg/h, 4 WAT): 0 (0-24)
pre-emergent herbicidal rating (Panicum Spp [18]; 1.12 kg/h, 4 WAT): 0 (0-24)
pre-emergent herbicidal rating (Panicum Spp [18]; 5.6 kg/h, 4 WAT): 0 (0-24)

CCCOC(=N)Cn1c(=O)sc2ccccc21 [Compound 30]
pre-emergent herbicidal rating (Wild Buckwheat [10]; 0.28 kg/h, 2 WAT): 0 (0-24)
pre-emergent herbicidal rating (Wild Buckwheat [10]; 1.12 kg/h, 4 WAT): 1 (25-49)
pre-emergent herbicidal rating (Wild Buckwheat [10]; 5.6 kg/h, 4 WAT): 2 (50-74)
pre-emergent herbicidal rating (Sugar Beet [11]; 0.28 kg/h, 2 WAT): 1 (25-49)
pre-emergent herbicidal rating (Sugar Beet [11]; 1.12 kg/h, 4 WAT): 1 (25-49)
pre-emergent herbicidal rating (Sugar Beet [11]; 5.6 kg/h, 4 WAT): 3 (75-100)
pre-emergent herbicidal rating (Wheat [12]; 0.28 kg/h, 2 WAT): 0 (0-24)
pre-emergent herbicidal rating (Wheat [12]; 1.12 kg/h, 4 WAT): 0 (0-24)
pre-emergent herbicidal rating (Wheat [12]; 5.6 kg/h, 4 WAT): 1 (25-49)
pre-emergent herbicidal rating (Rice [13]; 0.28 kg/h, 2 WAT): 0 (0-24)
pre-emergent herbicidal rating (Rice [13]; 1.12 kg/h, 4 WAT): 0 (0-24)
pre-emergent herbicidal rating (Rice [13]; 5.6 kg/h, 4 WAT): 1 (25-49)
pre-emergent herbicidal rating (Crabgrass [14]; 0.28 kg/h, 2 WAT): 0 (0-24)
pre-emergent herbicidal rating (Crabgrass [14]; 1.12 kg/h, 4 WAT): 2 (50-74)
pre-emergent herbicidal rating (Crabgrass [14]; 5.6 kg/h, 4 WAT): 3 (75-100)
pre-emergent herbicidal rating (Hemp Sesbania [15]; 0.28 kg/h, 2 WAT): 1 (25-49)
pre-emergent herbicidal rating (Hemp Sesbania [15]; 1.12 kg/h, 4 WAT): 2 (50-74)
pre-emergent herbicidal rating (Hemp Sesbania [15]; 5.6 kg/h, 4 WAT): 3 (75-100)
pre-emergent herbicidal rating (Soybean [16]; 0.28 kg/h, 2 WAT): 0 (0-24)
pre-emergent herbicidal rating (Soybean [16]; 1.12 kg/h, 4 WAT): 1 (25-49)
pre-emergent herbicidal rating (Soybean [16]; 5.6 kg/h, 4 WAT): 3 (75-100)
pre-emergent herbicidal rating (Sorghum [17]; 0.28 kg/h, 2 WAT): 0 (0-24)
pre-emergent herbicidal rating (Sorghum [17]; 1.12 kg/h, 4 WAT): 0 (0-24)
pre-emergent herbicidal rating (Sorghum [17]; 5.6 kg/h, 4 WAT): 0 (0-24)
pre-emergent herbicidal rating (Panicum Spp [18]; 0.28 kg/h, 2 WAT): 0 (0-24)
pre-emergent herbicidal rating (Panicum Spp [18]; 1.12 kg/h, 4 WAT): 0 (0-24)
pre-emergent herbicidal rating (Panicum Spp [18]; 5.6 kg/h, 4 WAT): 0 (0-24)
